Key:
[1] = test system: L-NAME induced hypertensive rats; experiment: Morphology (body, kidney, heart weight), L-NAME rats; format: in vivo; conditions: mean ± SEM
Description: (§1) The organ protective properties of the palm leaves extract and palm leaves functional ingredients on heart, and kidneys are shown in the morphology Table 4 below. […] Kidney/BW were similar in all groups. […] However, in L-NAME+captopril rats had lower Heart/BW ratio versus L-NAME.

L-NAME rats = experiment: Serum nitric oxide, L-NAME rats; format: in vivo; parameters: unit not given here
normotensive animals [2] = experiment: Morphology (body, kidney, heart weight), normotensive rats; format: in vivo; conditions: mean ± SEM
Description: as §1

[3] = test system: SHR (spontaneous/genetically hypertensive animals); experiment: Erythrocyte antioxidant enzymes (SOD, GSH-Px, CAT), SHR; format: in vivo, rats
Description: SOD, GSH-Px, and CAT is the first line of antioxidative enzyme defense against oxidative stress, converting reactive oxygen to hydrogen peroxide and water. SOD, GSH-Px, and CAT […] activity indicate […] oxidative stress in hypertensive animals supplemented with oil palm leaves extract.

[4] = test system: SHR (spontaneously/genetically hypertensive rats); experiment: Morphology (body, kidney, heart weight), SHR; format: in vivo; conditions: mean ± SEM
normotensive animals [5] = experiment: Erythrocyte antioxidant enzymes (SOD, GSH-Px, CAT), normotensive animals; format: in vivo, rats
[6] = test system: SHR (spontaneously hypertensive rats); experiment: Serum nitric oxide, SHR; format: in vivo; parameters: unit not given here
normotensive rats = experiment: Serum nitric oxide, normotensive rats; format: in vivo; parameters: unit not given here
[7] = test system: SHR (spontaneous/genetically hypertensive animals); experiment: Organ antioxidant enzymes (kidney, heart, brain), SHR; format: in vivo, rats
Description: SOD, GSH-Px, and CAT is the first line of antioxidative enzyme defense against oxidative stress, converting reactive oxygen to hydrogen peroxide and water.

## C[C@H](CS)C(=O)N1CCC[C@H]1C(=O)O [Captopril, captopril]
[1]
  Final body weight: 296.4 ± 5.97 g
  Heart: 0.91 ± 0.07 g
  Heart/Body weight: 3.096 ± 0.0003 mg/g
  Kidney: 2.017 ± 0.07 g
  Kidney/Body Weight: 6.822 ± 0.0002 mg/g
L-NAME rats; Week 0
  nitric oxide values measured in serum: 0.402 ± 0.008
L-NAME rats; Week 6
  nitric oxide values measured in serum: 0.585 ± 0.082
L-NAME rats; Week 8
  nitric oxide values measured in serum: 0.742 ± 0.123
L-NAME rats; Week 12
  nitric oxide values measured in serum: 0.44 ± 0.072
Normotensive animals [2]
  Final body weight: 291.4 ± 8.56 g
  Heart: 1.02 ± 0.04 g
  Heart/Body weight: 3.558 ± 0.0002 mg/g
  Kidney: 2.140 ± 0.07 g
  Kidney/Body Weight: 7.370 ± 0.0003 mg/g
[3]; Week 0
  Erythrocyte Catalase: 0.019 ± 0.0007 k/ml
  Erythrocyte CuZn-SOD: 0.019 ± 0.0012 U/ml
  Erythrocyte Glutathione Peroxidase: 31.47 ± 0.94
[3]; Week 6
  Erythrocyte Catalase: 0.017 ± 0.0003 k/ml
  Erythrocyte CuZn-SOD: 0.009 ± 0.0012 U/ml
  Erythrocyte Glutathione Peroxidase: 12.69 ± 2.47
[3]; Week 8
  Erythrocyte Catalase: 0.017 ± 0.0004 k/ml
  Erythrocyte CuZn-SOD: 0.011 ± 0.0004 U/ml
  Erythrocyte Glutathione Peroxidase: 28.77 ± 2.05
[3]; Week 12
  Erythrocyte Catalase: 0.016 ± 0.0003 k/ml
  Erythrocyte CuZn-SOD: 0.012 ± 0.0007 U/ml
  Erythrocyte Glutathione Peroxidase: 34.63 ± 2.2
[4]
  Final body weight: 259.09 ± 5.53 g
  Heart: 1.16 ± 0.07 g
  Heart/Body weight: 4.533 ± 0.0002 mg/g
  Kidney: 2.074 ± 0.09 g
  Kidney/Body Weight: 8.139 ± 0.0004 mg/g
Normotensive animals [5]; Week 0
  Erythrocyte Catalase: 0.014 ± 0.0006 k/ml
  Erythrocyte CuZn-SOD: 0.014 ± 0.0010 U/ml
  Erythrocyte Glutathione Peroxidase: 16.5 ± 0.76
Normotensive animals [5]; Week 6
  Erythrocyte Catalase: 0.013 ± 0.0003 k/ml
  Erythrocyte CuZn-SOD: 0.022 ± 0.0006 U/ml
  Erythrocyte Glutathione Peroxidase: 21.1 ± 5.05
Normotensive animals [5]; Week 8
  Erythrocyte Catalase: 0.014 ± 0.0005 k/ml
  Erythrocyte CuZn-SOD: 0.015 ± 0.0019 U/ml
  Erythrocyte Glutathione Peroxidase: 9.3 ± 1.24
Normotensive animals [5]; Week 12
  Erythrocyte Catalase: 0.013 ± 0.0008 k/ml
  Erythrocyte CuZn-SOD: 0.018 ± 0.0006 U/ml
  Erythrocyte Glutathione Peroxidase: 26.2 ± 6.90
[6]; Week 0
  nitric oxide values measured in serum: 0.230 ± 0.02
[6]; Week 6
  nitric oxide values measured in serum: 0.425 ± 0.05
[6]; Week 8
  nitric oxide values measured in serum: 0.438 ± 0.08
[6]; Week 12
  nitric oxide values measured in serum: 0.572 ± 0.02 +
Normotensive rats; Week 0
  nitric oxide values measured in serum: 0.381 ± 0.023
Normotensive rats; Week 6
  nitric oxide values measured in serum: 0.573 ± 0.024
Normotensive rats; Week 8
  nitric oxide values measured in serum: 0.455 ± 0.060
Normotensive rats; Week 12
  nitric oxide values measured in serum: 0.525 ± 0.071
[7]; Heart
  Organ Catalase: 4.08 ± 0.458 k/mg protein
  Organ CuZn-SOD: 0.78 ± 0.301 U/mg protein
  Organ GPx: 3.20 ± 0.23 U/mg protein
[7]; Kidney
  Organ Catalase: 25.96 ± 2.04 k/mg protein
  Organ CuZn-SOD: 0.80 ± 0.199 U/mg protein
  Organ GPx: 2.02 ± 0.184 U/mg protein
[7]; brain
  Organ Catalase: 1.96 ± 0.27 k/mg protein
  Organ CuZn-SOD: 1.26 ± 0.097 U/mg protein
  Organ GPx: 2.87 ± 0.360 U/mg protein
